2 compounds from patent publication EP4800013A1, “PARG INHIBITOR” (Shanghai Qilu Pharmaceutical Research and Development …, priority 2023, dated 2025) can be followed below.

The nature of this data set: Pharmacokinetic evaluation in CD-1 mice (IV and PO). The class given is in vivo. The following applies: male, mouse, plasma; for Vd: read-out: Vss. As for the experimental part:
Using mice as test animals, the compounds of the present disclosure were administered via intravenous bolus and oral injection. Plasma samples were collected at specific time points. Compound concentrations in plasma were determined by LC-MS/MS, and PK parameters were calculated to characterize the pharmacokinetic behavior of the compounds of the present disclosure in plasma.
CD-1 mice, male, supplied by Zhejiang Vital River Laboratory Animal Technology Co., Ltd.
Dosing regimen for CD-1 mice: Both the IV (intravenous) and PO (oral) experimental groups consisted of 3 mice. The IV group was administered at a dose of 1 mg/kg and a volume of 5 mL/kg. The PO group was administered at a dose of 30 mg/kg and a volume of 10 mL/kg. The dosing vehicle was 5% (v/v) DMSO/10% (v/v) Solutol/85% (v/v) saline.
Following administration, 0.025 mL of blood was collected via venipuncture at the following time points: 0.0833 (IV), 0.25, 0.5, 1, 2, 4, 8, and 24 hours. Blood samples were collected into EDTA-K2 tubes and centrifuged at 4°C and 2000 g for 10 minutes to separate plasma, which was stored at -80°C.
Mouse plasma processing: • 1) 15 µL of plasma was mixed with 200 µL of acetonitrile for protein precipitation. The mixture was vortexed and centrifuged for 15 minutes. • 2) The supernatant after processing was diluted with water and analyzed by LC/MS/MS to determine the concentration of the test compound.
Pharmacokinetic parameters were calculated using WinNonlin 6.1. Specifically, Cmax represents maximum plasma concentration, CL represents clearance, Vss represents volume of distribution at steady state, T1/2 represents terminal elimination half-life, MRTInf represents mean residence time, AUC represents area under the plasma concentration-time curve, and F represents bioavailability. Table 18: Pharmacokinetic parameters of the compounds of the present disclosure in CD-1 mice

In the case of `CCc1nc2n(-c3nnc(C(F)F)s3)c3cc(S(=O)(=O)NC4(C)CC4)cc(N4C[C@H](C)N[C@@H](C)C4)c3n2n1` [Compound 065R], under “IV, 1 mg/kg”, the AUC – broadly, concentration integrated over time – is 0.555 µM·h; the MRT inf – broadly, a mean duration of stay, worked out from the concentration-time curve – was 2.3 h; the clearance turned out to be 50 mL/min/kg; the half-life – broadly, the time in which the quantity being followed falls by half – was 2.2 h. Besides, the Vd (IV, 1 mg/kg) was 6.8 L/kg. Moreover, under “PO, 30 mg/kg”, the area under the curve (AUC) was 11.2 µM·h, the peak level (Cmax) was 1610 nM, the MRT inf was 4.6 h and the half-life was 2.4 h.
As for `C[C@H]1CN(c2cc(S(=O)(=O)NC3(C)CC3)cc3c2n2nc(C(F)(F)F)nc2n3-c2nnc(C(F)F)s2)C[C@H](C)N1` [Compound 065W], where the note is “IV, 1 mg/kg”, the AUC amounted to 1.26 µM·h, the MRT inf turned out to be 5.6 h, the clearance worked out at 22 mL/min/kg and the half-life is 5.2 h. Also, the Vd (IV, 1 mg/kg) was 7.2 L/kg. Moreover, for the setting “PO, 30 mg/kg”, the AUC was found to be 18.3 µM·h, the concentration peaked (Cmax) at 1980 nM, the MRT inf came out at 5.7 h and the half-life was 3.3 h.
